From patent EP0956287B1, “3-ARYL-2-(1-SUBSTITUTED-4-PIPERIDINYL)-1(1-DI)OXO-3H-BENZO D]-ISOTHIAZOLE DERIVATIVES, THEIR PREPARATION AND THEIR USE AS MODULATORS OF NEUROTRANSMITTER FUNCTION” (Aventis Pharmaceuticals Inc., priority 1996, dated 1998)
Structures can show the parent of a compound that is named as a salt.

How the values were obtained:
Assay type in all cases: biochemical
[1] = target: T1, serotonin (5HT) uptake (Rattus norvegicus, UniProt P31652); assay: Inhibition of [3H]-serotonin uptake in rat whole brain synaptosomes; conditions: [3H]-5 HT 50 nM
T1 construct: Whole brain minus cerebella is weighed and homogenized in 9 volumes of ice-cold 0.32 M sucrose; from tissue; host or cells: rat whole brain minus cerebella, crude synaptosomal supernatant (S1)
Method: Inhibition of [^3H]-Serotonin Uptake in Rat Whole Brain Synaptosomes
This assay is used a biochemical screen for compounds which block serotonin (5 HT) uptake, which may be useful as antidepressants and for the treatment of personality disorders such as obsessive compulsive disorder.
(§1) A. Animals: Male CR Wistar rats (100-125 g).
(§2) 1. Krebs-Henseleit Bicarbonate Buffer, pH 7.4 (KHBB): Make a 1 liter batch, containing the following salts.
Aerate for 60 minutes with 95% O2/5% CO2, check pH (7.4±0.1). 2. 0.32 M Sucrose: 21.9 g of sucrose, bring to 200 ml. 3. Serotonin creatinine SO4 is obtained from Sigma Chemical Co. A 0.1 mM stock solution is made up in 0.01N HCl. This is used to dilute the specific activity of radiolabeled 5 HT. 4. 5-[1,2-^3H(N)]-Hydroxytryptamine creatinine sulfate (Serotonin), specific activity 20-30 Ci/mmol is obtained from New England Nuclear. The final desired concentration of ^3H-5 HT in the assay is 50 nM. The dilution factor is 0.8. Therefore, the KHBB is made up to contain 62.5 nM [^3H]--5 HT. Add to 100 ml of KHBB.
(§3) 5. For most assays, a 1 mM solution of the test compound is made up in suitable solvent and serially diluted such that the final concentration in the assay ranges from 2 x 10^-8 to 2 x 10^-5 M. Seven concentrations are used for each assay. Higher or lower concentrations may be used depending on the potency of the compound.
(§4) Male Wistar rats are decapitated and the brain rapidly removed. Whole brain minus cerebella is weighed and homogenized in 9 volumes of ice-cold 0.32 M sucrose using a Potter-Elvejhem homogenizer. Homogenization should be done with 4-5 up and down strokes at medium speeds to minimize synaptosome lysis. The homogenate is centrifuged at 1000 g for 10 minutes at 0° - 4°C. The supernatant (S1) is decanted and is used for uptake experiments.
• 800 µl KHBB + [^3H]-5 HT. • 20 µl Vehicle or appropriate drug concentration • 200 µl Tissue suspension
(§5) Tubes are incubated at 37°C under a 95% O2/5% CO2 atmosphere for 5 minutes. For each assay, 3 tubes are incubated with 20 µl of vehicle at 0°C in an ice bath. After incubation all tubes are immediately centrifuged at 4000 g for 10 minutes. The supernatant fluid is aspirated and the pellets dissolved by adding 1 ml of solubilizer (Triton® X-100 + 50% EtOH, 1:4 v/v). The tubes are vigorously shaken, decanted into scintillation vials, and counted in 10 ml of Liquicint® scintillation counting cocktail. Active uptake is the difference between cpm at 37°C and 0°C. The percent inhibition at each drug concentration is the mean of three determinations. IC50 values are derived from log-probit analysis.

[2] = target: T2, dopamine (DA) uptake (Rattus norvegicus, UniProt P23977); assay: Inhibition of 3H-dopamine uptake in rat striatal synaptosomes; conditions: head says whole brain synaptosomes, method uses striatal synaptosomes, 3H-DA 50 nM
T2 construct: Corpora striata are rapidly removed, weighed and homogenized in 9 volumes of ice-cold 0.32 M sucrose; from tissue; host or cells: rat corpora striata, crude synaptosomal supernatant (S1)
Method: Inhibition of ^3H-Dopamine Uptake in Rat Striatal Synaptosomes
this assay is used to show differential drug effects on dopamine uptake versus nerepppinephrine uptake and to identify therapeutic agents for diseases where the potentiation of dopaminergic activity may be helpful (e.g. Parkinson's Disease).
as §1
1. Krebs-Henseleit Bicarbonate Buffer, pH 7.4 (KHBB): Make a 1 liter batch containing the following salts:
Aerate for 60 minutes with 95% O2/5% CO2, check pH (7.4±0.1). 2. 0.32 M Sucrose: 21.9 g of sucrose, bring to 200 ml. 3. Dopamine HCl is obtained from Sigma Chemical Co. A 0.1 mM stock solution is made up in 0.01N HCI. This is used to dilute the specific activity of radiolabeled 5 HT. 4. 3,4-[8-^3H(N)]-Dihydroxyphenylethylamine (Dopamine), specific activity 4-34 Ci/mmol is obtained from New England Nuclear. The final desired concentration of ^3H-DA in the assay is 50 nM. The dilution factor is 0.9. Therefore, the KHBB is made up to contain 55.5 nM [^3H]-5 DA. Add to 100 ml of KHBB.
as §3, with “assays, a 1mM stock solution of” for “assays, a 1 mM solution of”, “up in a suitable solvent” for “up in suitable solvent”
as §4, with “Corpora striata are rapidly removed,” for “Whole brain minus cerebella is”, “0°-” for “0° -”
• 900 µl KHBB + [^3H]-DA. • 20 µl Vehicle or appropriate drug concentration • 100 µl Tissue suspension
as §5, with “Liquiscint®” for “Liquicint®”

[3] = target: T3, norepinephrine (NE) uptake (Rattus norvegicus, UniProt Q63380); assay: Inhibition of [3H]-norepinephrine uptake in rat whole brain or hypothalamic synaptosomes; conditions: [3H]-NE 50 nM
T3 construct: Either whole brain minus cerebella or hypothalamus is weighed and homogenized in 9 volumes of ice-cold 0.32 M sucrose; from tissue; host or cells: rat whole brain minus cerebella or hypothalamus, crude synaptosomal supernatant (S1)
Method: Inhibition of [^3H]-Norepinephrine Uptake in Rat Whole Brain or Hypothalamic Synaptosomes
This assay is used as a biochemical screen for potential antidepressants which block norepinephrine uptake.
as §1, §2
Aerate for 60 minutes with 95% O2/5% CO2, check pH (7.4±0.1); then add bovine serum albumin (Sigma cat#A-7906) 1 mg/ml. 2. 0.32M Sucrose: 21.9 g of sucrose, bring to 200 ml. 3. L(-)-Norepinephrine bitartrate is obtained from Sigma Chemical Co. A 0.1 mM stock solution is made up in 0.01 N HCl. This is used to dilute the specific activity of theradiolabeled NE. 4. Levo-[Ring-2,5,6-^3H]-Norepinephrine (40-50 Ci/mmol) is obtained from New England Nuclear. The final desired concentration of [^3H]-NE in the assay is 50 nM. The dilution factor is 0.8. Therefore, the KHBB is made up to contain 62.5 nM [^3H]-NE. Add to 100 ml of KHBB.
as §3, with “1 mM stock solution of” for “1 mM solution of”, “up in a suitable solvent” for “up in suitable solvent”
as §4, with “removed. Either whole” for “removed. Whole”, “cerebella or hypothalamus” for “cerebella”, “lysis. TH” for “lysis. The”, “0°” for “0° -”
• 800 µl KHBB [^3H]-NE • 20 µl Vehicle or appropriate drug concentration • 200 µl Tissue suspension
Tubes are incubated at 37°C, under a 95% O2/5% CO2 atmosphere for 5 minutes. For each assay, 3 tubes are incubated with 20 µl of vehicle at 0°C in a ice bath. After incubation all tubes are immediately centrifuged at 4000 g for 10 minutes. The supernatant fluid is aspirated and the pellets dissolved by adding 1 ml of solubilizaer (Triton® X-100 + 50% EtOH, 1:4 v/v). The tubes are vigorously shaken decanted into scientillation vials, and counted in 10 ml of Liquiscint® scintillation countering cocktail. Active uptake is the difference between cpm at 37°C. and 0°C. The percent inhibition at each drug concentration is the mean of three determinations IC50 values are derived from log-probit analysis.

T1 sequence (P31652 whole entry): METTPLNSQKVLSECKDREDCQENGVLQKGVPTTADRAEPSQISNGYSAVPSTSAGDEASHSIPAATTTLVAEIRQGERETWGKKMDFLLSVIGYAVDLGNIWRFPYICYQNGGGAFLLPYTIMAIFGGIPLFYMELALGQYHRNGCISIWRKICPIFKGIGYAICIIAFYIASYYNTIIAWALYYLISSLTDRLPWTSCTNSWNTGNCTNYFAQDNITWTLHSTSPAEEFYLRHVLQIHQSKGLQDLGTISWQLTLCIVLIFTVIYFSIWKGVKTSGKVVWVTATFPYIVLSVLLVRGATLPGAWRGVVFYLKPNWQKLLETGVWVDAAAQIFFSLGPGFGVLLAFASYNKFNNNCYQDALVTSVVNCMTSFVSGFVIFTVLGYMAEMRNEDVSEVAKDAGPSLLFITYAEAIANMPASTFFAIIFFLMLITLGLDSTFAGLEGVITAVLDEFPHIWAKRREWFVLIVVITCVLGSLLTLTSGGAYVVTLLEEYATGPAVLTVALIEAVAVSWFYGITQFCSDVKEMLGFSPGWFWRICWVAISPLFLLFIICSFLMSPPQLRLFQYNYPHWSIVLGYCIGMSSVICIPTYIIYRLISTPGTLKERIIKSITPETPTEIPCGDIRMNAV
T2 sequence (P23977 whole entry): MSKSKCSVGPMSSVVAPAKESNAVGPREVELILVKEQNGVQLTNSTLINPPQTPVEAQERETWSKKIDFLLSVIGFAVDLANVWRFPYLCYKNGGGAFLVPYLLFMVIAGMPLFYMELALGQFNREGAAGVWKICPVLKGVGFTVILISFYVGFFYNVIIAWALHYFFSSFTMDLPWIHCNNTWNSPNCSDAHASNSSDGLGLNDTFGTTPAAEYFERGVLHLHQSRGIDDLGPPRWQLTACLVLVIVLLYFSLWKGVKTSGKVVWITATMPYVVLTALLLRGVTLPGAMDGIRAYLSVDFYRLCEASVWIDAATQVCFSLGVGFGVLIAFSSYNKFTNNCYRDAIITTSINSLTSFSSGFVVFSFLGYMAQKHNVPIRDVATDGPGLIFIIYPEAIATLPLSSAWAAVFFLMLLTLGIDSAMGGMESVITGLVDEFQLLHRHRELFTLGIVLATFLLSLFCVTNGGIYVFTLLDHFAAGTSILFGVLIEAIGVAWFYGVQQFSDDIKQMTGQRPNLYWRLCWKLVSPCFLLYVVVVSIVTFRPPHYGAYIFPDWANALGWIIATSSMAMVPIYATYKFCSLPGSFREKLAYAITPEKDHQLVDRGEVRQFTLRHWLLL
T3 sequence (Q63380 1-617): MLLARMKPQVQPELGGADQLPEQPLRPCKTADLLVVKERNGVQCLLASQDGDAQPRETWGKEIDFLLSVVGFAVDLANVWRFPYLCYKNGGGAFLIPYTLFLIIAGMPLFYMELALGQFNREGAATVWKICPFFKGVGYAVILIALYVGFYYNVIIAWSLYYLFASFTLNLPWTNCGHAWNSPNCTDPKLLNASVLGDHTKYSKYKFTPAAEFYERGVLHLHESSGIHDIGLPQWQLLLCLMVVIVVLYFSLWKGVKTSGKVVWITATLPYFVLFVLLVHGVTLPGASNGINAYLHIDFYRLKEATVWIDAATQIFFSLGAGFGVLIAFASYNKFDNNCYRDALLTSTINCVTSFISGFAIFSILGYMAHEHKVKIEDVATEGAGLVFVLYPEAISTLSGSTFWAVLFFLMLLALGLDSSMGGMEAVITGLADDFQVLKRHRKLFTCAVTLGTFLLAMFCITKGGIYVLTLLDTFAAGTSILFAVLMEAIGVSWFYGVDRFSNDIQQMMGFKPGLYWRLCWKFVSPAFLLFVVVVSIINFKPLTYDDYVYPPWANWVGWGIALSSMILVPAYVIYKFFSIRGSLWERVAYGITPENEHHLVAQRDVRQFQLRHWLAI

SMILES | Whole brain synaptosomes % inhibition at 3.16 µm 5HT [1] [%] | Whole brain synaptosomes % inhibition at 3.16 µm DA [2] [%] | Whole brain synaptosomes % inhibition at 3.16 µm NE [3] [%]
Cl.O=S1(=O)c2ccccc2C(c2ccc(F)cc2)N1C1CCNCC1 (stereo not drawn) [3-(4-Fluorophenyl)-2-(4-piperidinyl)-2,3-dihydrobenzo[d]isothiazole-1,1-dioxide hydrochloride] | 37.92 | 30.34 | 25.02
O=C(O)/C=C\C(=O)O.O=C1c2ccccc2C(=O)N1CCCN1CCC(N2C(c3ccc(Cl)cc3)c3ccccc3S2(=O)=O)CC1 (stereo not drawn) [2-(3-{4-[3-(4-Chlorophenyl)-1,1-dioxo-3H-benzo[d]isothiazol-2-yl]piperidin-1-yl}propyl)-isoindol-1,3-dione maleate] | 29.02 | 57.36 | 28.37
O=C(O)/C=C\C(=O)O.O=S1(=O)c2ccccc2C(c2ccc(Cl)cc2)N1C1CCN(CCO)CC1 (stereo not drawn) [2-{4-[3-(4-Chlorophenyl)-1,1-dioxo-3H-benzo[d]isothiazol-2-yl]-piperidin-1-yl}-ethanol maleate] | 3.68 | 18.71 | 8.71
COc1cc(C(C)=O)ccc1OCCCN1CCC(N2C(c3ccc(Cl)cc3)c3ccccc3S2(=O)=O)CC1 (stereo not drawn) [1-[4-(3-{4-[3-(4-Chlorophenyl)-1,1-dioxo-3H-benzo[d]isothiazol-2-yl]-1-piperidin-1-yl}-propoxy)-3-methoxyphenyl]-ethanone maleate] | 48.78 | 67.94 | 55.23
